In patent publication US6287840A (Axys Pharmaceuticals, Inc., priority 1999, dated 2001):

Assays:
P. carinii = test: Growth of P. carinii in vitro; assay type: cell-based; conditions: 10 mM each
Method: Mu-Leu-HphVSPh and Mu-Phe-LysVSPh.HBr were evaluated for their effects on the growth of P. carinii in vitro, according to the procedure of M. S. Bartlett et al. [Antimicrotubule Benzimidazoles Inhibit In Vitro Growth of P. carinii, M. S. Bartlett, T. D. Edlind, M. M. Durkin, M. M. Shaw, S. F. Queener, and J. W. Smith, (1992) Antimicrobial Agents and Chemotherapy, 36, 779-782; Antimicrobial susceptibility of P. carinii in culture, M. S. Bartlett, R. Eichholtz, and J. W. Smith (1985) Diagn. Microbiol. Infect. Dis.; 3, 381-387. Mu-Leu-HphVSPh and Mu-Phe-LysVSPh.HBr (10 mM each) inhibited the growth of P. carinii 64% and 50% respectively.

Cloned cathepsin S = target: T1, Cloned cathepsin S (Homo sapiens, UniProt P25774); test: Inhibition of cathepsin S, Z-Val-Val-Arg-AMC fluorescence progress curves; assay type: biochemical; conditions: values marked *; 25° C., pH 6.5
T1 construct: made in house
Summary of the method: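 Fluorescence (380 nm excitation, 460 nm emission) was followed after adding sub-nM enzyme to pH 6.5 phosphate buffer with DTT, EDTA, Triton, 10 μM Z-VVR-AMC and 30-0.001 μM inhibitor at 25 °C. Fitted kobs values gave apparent kobs/[I]; for some, double-reciprocal plots gave kirr, KI and kirr/KI, KI corrected by 1+[S]/Km.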

[1] = test system: mouse malarial parasite Plasmodium vinckei; test: In vitro protease activity of malarial parasite, substrate Z-Phe-Arg-AMC; assay type: biochemical; conditions: cells printed in nM; read-out: P. vinckei IC50 (murine)
Text: (§1) The following table summarizes the comparative IC50 values for selected cysteine protease inhibitors against the human malarial parasite Plasmodium falciparum and the mouse malarial parasite Plasmodium vinckei. The substrate used to measure in vitro protease activity was Z-Phe-Arg-AMC.

[2] = test system: human malarial parasite Plasmodium falciparum; test: as above; assay type: biochemical; conditions: cells printed in nM; read-out: P. falciparum IC50 (human)
Text: as §1

[3] = target: T2, Cathepsin L from rat liver (Rattus norvegicus, UniProt P07154); test: Inhibition of cathepsin L, Z-Phe-Arg-AMC fluorescence progress curves; assay type: biochemical
T2 construct: Cathepsin L from rat liver; from tissue; host or cells: rat liver
Summary of the method: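 Progress curves of AMC release (380/460 nm) over at least 3 inactivation half-times were fitted to kobs, reported as kobs/[I] or, via 1/[I] vs 1/kobs, kirr, KI (substrate-corrected) and kirr/KI.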

calpain = test: Inhibition (inactivation) of calpain, Suc-Leu-Tyr-AMC; assay type: biochemical; conditions: values marked * (or %); pH 7.5, 5 mM CaCl2, 25° C.
Method: The inhibitors were tested against calpain at 1 or 2% as for the other enzymes. The reaction conditions were 50 mM Tris, pH 7.5, 5 mM CaCl2, 2.5 mM DTT, assayed at 25° C. The substrate was 100 μM Suc-Leu-Tyr-AMC.

cruzain, from T. cruzi = cruzain, from T. cruzi (Trypanosoma cruzi, UniProt P25779); test: Inhibition of cruzain, as for cathepsin L; assay type: biochemical; conditions: values marked *
Summary of the method: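 Run as for cathepsin L with 1 nM cruzain in 50 mM phosphate pH […], 2.5 mM DTT, 2.5 mM EDTA, 5 μM Z-Phe-Arg-AMC, at 25 °C, inhibitors 30-0.001 μM; fluorescence (ex 380/em 460 nm) followed continuously. kobs fitted from progress curves and kobs/[I] reported; selected compounds gave kirr, KI, kirr/KI, with KI corrected by (1+[S]/Km).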

[4] = Stability of selected inhibitors toward glutathione (Ellmans reagent); assay type: physicochemical; conditions: inhibitor 5 mM, GSH 0.3 mM, pH=6.2, 20° C.
Method: The inhibitors (5 mM) were incubated with glutathione (GSH) (0.3 mM) in phosphate buffer (50 mM) at pH=6.2 containing 15% DMF at 20° C. Periodically, 50 μL samples were added to 1 mL of buffer and treated with 10 μL of 30 mM Ellmans reagent and the absorbance measured at 412 nm.

T. cruzi = T. cruzi infected irradiated J774 cells; assay type: cell-based; set-up: dose or concentration left out as unconfirmed; conditions: thereafter without inhibitor; compounds listed in decreasing order of effectiveness
Method: Irradiated J774 cells were infected with T. cruzi and simultaneously treated with […] of peptidyl vinyl derivatives for 5 days; thereafter without inhibitor. The following compounds were effective in decreasing order: Mu-Phe-ArgVSPh, Boc-Tyr(I2)-HphVSPh, Mu-Phe-VaIVSPh, Boc-Tic-HphVSPh, Mu-Phe-Ser(OBzl)VSPh, Mu-Leu-HphVSPh, Mu-Tyr(I2)-HphVSPh, Mu-Phe-LysVSPh, Mu-Tic-HphVSPh.

[5] = target: T3, Cathepsin B from human placenta (Homo sapiens, UniProt P07858); test: Inhibition of cathepsin B, Z-Arg-Arg-AMC fluorescence progress curves; assay type: biochemical; conditions: 25° C., pH 6.2
T3 construct: Cathepsin B from human placenta, obtained from Sigma; purchased Sigma; host or cells: human placenta (tissue)
Summary of the method: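 Human placental enzyme (~10 nM) in 50 mM phosphate pH 6.2 with 2.5 mM DTT and 2.5 mM EDTA, 50 μM Z-Arg-Arg-AMC, inhibitors 30-0.001 μM, 25° C. AMC fluorescence (ex 380/em 460 nm) progress curves fitted for kobs; kobs/[I] reported, with kirr, KI and kirr/KI substrate-corrected for selected compounds.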

T2 sequence (P07154 114-288 limits assumed): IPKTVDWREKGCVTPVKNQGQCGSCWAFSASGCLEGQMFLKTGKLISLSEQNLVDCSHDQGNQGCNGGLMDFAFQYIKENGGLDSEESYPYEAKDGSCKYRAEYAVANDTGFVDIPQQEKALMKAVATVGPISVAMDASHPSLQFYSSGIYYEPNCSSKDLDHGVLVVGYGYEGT
T2 sequence (P07154 291-334 limits assumed): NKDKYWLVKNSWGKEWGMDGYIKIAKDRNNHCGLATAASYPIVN
Sequence of cruzain, from T. cruzi (P25779 123-337 limits assumed): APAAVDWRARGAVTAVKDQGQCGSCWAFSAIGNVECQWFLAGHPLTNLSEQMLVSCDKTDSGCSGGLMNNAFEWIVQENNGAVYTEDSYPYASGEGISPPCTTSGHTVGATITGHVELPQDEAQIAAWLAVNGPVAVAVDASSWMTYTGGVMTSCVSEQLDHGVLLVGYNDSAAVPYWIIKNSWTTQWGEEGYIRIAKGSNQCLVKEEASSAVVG
T1 sequence (P25774 115-331): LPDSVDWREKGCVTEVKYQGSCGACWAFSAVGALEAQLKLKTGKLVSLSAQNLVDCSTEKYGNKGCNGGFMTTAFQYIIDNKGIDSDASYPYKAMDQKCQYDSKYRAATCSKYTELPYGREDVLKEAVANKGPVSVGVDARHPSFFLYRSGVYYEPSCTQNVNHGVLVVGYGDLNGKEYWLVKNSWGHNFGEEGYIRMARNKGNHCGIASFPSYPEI

kobs /[I]* (approximate second-order inactivation constant) (Cloned cathepsin S): 10,700,000 M^-1 sec^-1
IC50 [1]: 60 nM
IC50 [2]: 100 nM
kirr [3]: 0.16 s⁻¹
Ki ([3]; corrected for substrate): 1400 nM
kobs /[I]* (approximate second-order inactivation constant) ([3]; values marked *, 25° C., pH 6.2): 220,000 M^-1 sec^-1
k/KI (kirr/KI) ([3]; values without asterisk, 25° C., pH 6.2): 110,000 M^-1 sec^-1
kobs /[I]* (approximate second-order inactivation constant) (cruzain, from T. cruzi): 149,000 M^-1 sec^-1
second order rate constant for the loss of GSH [4]: 0.00055 M⁻¹ s⁻¹
kobs /[I]* (approximate second-order inactivation constant) ([5]; values marked *): 11,300 M^-1 sec^-1
k/KI (kirr/KI) ([5]; values without asterisk): 11,700 M^-1 sec^-1
Compound: Br.NCCCC[C@@H](/C=C/S(=O)(=O)c1ccccc1)NC(=O)[C@H](Cc1ccccc1)NC(=O)N1CCOCC1 [Mu-Phe-LysVSPh.HBr, (G)-(E)-7-amino-3-(4-morpholinecarbonylphenylalanyl)amino-1-phenylsulfonyl-1-heptene hydrobromide]
inhibition of the growth of P. carinii (P. carinii): 50%
kobs /[I]* (calpain): < 50 M⁻¹ s⁻¹
effectiveness against T. cruzi in J774 cells (T. cruzi): effective
